Measurements as given in patent US10683334B2 (INDIANA UNIVERSITY RESEARCH AND TECHNOLOGY CORPORATION, priority 2016, dated 2020).
Square brackets hold non-standard residues; d marks the D form. Peptide text beside a SMILES is read from it. Aib = CC(C)(N)C(=O)O

Columns and labels:
[1] = Thioflavin-T fluorescence assay (fibrillation/aggregation); assay type: physicochemical
Procedure: The Thioflavin T (ThT) Assay measures changes of in fluorescence intensity of ThT upon binding to amyloid fibrils. The enhanced fluorescence can be observed by fluorescence microscopy or by fluorescent spectroscopy. The spectroscopic assay is commonly used to monitor fibrilization over time, but the assay is not strictly quantitative and differences in binding have been observed for samples after lyophilization.
Prepare a ThT stock solution by adding 8 mg ThT to 10 mL phosphate buffer (10 mM phosphate, 150 mM NaCl, pH 7.0) and filter through a 0.2 μm syringe filter. This stock solution should be stored in the dark and is stable for about one week.
Dilute the stock solution into the phosphate buffer (1 mL ThT stock to 50 mL buffer) on the day of analysis to generate the working solution.
Add an aliquot of untreated protein solution (5-10 μL) to the cuvette, stir for 1 min, and measure the intensity over 60 s. This serves as the control sample. […]
Lyophilized peptides were dissolved in appropriate buffer at concentration ˜8-9 mg/mL (1-5 in 0.1N hydrochloric acid; 7, 9 and 11 in 50 mM Sodium Phosphate, 150 mM of sodium chloride, pH7.4). Exact concentration was calculated based on UV absorbance at λ=280 nm and all samples were dissolved further down to equal concentration of 5 mg/mL. […] Fibrillation was measured according to modified Thioflavin-T fluorescence assay protocol. […]

physchem = assay: physchem
Procedure: 1 or 5 mg of pre-lyophilized peptide in 2 mL Eppendorf tube was treated with 200-400 uL of phosphate buffer (PBS: 50 mM sodium phosphate, 150 mM of sodium chloride, pH7.4). Samples were then vortexed and sonicated for 10 min then equilibrated at RT for 1H, and then centrifuged at 10 krpms for 10 min Concentration of the peptides in obtained supernatant was determined by measuring UV absorbance at λ=280 nm. […] Concentration in aliquots was reassessed as previously with UV absorbance. Change in peptide concentration was evaluated after 48 h and 7 days of storage at 4° C.

glucagon receptor = glucagon receptor (Homo sapiens, UniProt P47871); assay: Luciferase-based glucagon assay (cAMP reporter, HEK293 cells)
Chain of glucagon receptor (P47871 26-477): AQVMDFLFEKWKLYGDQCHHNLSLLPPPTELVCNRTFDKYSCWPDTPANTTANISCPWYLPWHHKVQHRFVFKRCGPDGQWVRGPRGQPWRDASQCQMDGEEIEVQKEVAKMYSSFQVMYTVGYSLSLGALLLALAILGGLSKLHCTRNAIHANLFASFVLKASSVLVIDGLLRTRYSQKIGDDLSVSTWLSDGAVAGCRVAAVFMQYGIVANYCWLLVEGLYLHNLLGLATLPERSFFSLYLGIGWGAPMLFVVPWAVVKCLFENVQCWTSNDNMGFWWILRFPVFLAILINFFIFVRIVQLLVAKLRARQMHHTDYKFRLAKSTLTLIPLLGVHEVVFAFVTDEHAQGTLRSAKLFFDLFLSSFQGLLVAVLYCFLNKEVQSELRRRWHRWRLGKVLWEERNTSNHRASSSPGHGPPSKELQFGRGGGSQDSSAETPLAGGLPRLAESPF
Procedure: At the end of the incubation 100 microliters of LucLite luminescence substrate reagent (Perkin-Elmer, Wellesley, Mass.) were added to each well. […] The luminescent light output indicates activation of the luciferase reporter gene, which in turn is a measure of the activation of the receptor.

[2] = system: insulin induced hypoglycemia in diabetic pigs; assay: Pig study: reversal of insulin induced hypoglycemia; assay type: in vivo, Yucatan miniature swine; conditions: insulin detemir 0.5 U/kg s.c. at 0 min, peptide 10 nmoles/kg at 240 min
Procedure: Male diabetic Yucatan miniature swine (4 animals/group) were fed and administered NPH insulin at 8:00 AM and at 12 h prior to the initiation of the study, then fasted until the completion of the final blood glucose measurements. Insulin NPH doses were adjusted based on glucose levels and the animals were randomized to achieve balanced glucose levels across groups. […] Blood glucose was measured at −5, 0 (Pre-Dose), 30, 60, 120, 240, 245, 250, 260, 280, 300, 330, 360 and 480 minutes using a handheld glucometer. The same instrument was used for all animals and two readings were taken per time point to insure consistency. The statistical analysis of the results obtained in the in vivo experiments was performed using Prism 6.0h (GraphPad Software, Calif.) applying regular two-way ANOVA followed by Sidak multiple comparison test between the two treatments. […] The results are presented as means±SEM of four replicates per group.

hGLP-1R = hGLP-1R (Homo sapiens, UniProt P43220); assay: cAMP luciferase reporter assay, activity at the GLP-1 receptor (Table 3)
Chain of hGLP-1R (P43220 24-463): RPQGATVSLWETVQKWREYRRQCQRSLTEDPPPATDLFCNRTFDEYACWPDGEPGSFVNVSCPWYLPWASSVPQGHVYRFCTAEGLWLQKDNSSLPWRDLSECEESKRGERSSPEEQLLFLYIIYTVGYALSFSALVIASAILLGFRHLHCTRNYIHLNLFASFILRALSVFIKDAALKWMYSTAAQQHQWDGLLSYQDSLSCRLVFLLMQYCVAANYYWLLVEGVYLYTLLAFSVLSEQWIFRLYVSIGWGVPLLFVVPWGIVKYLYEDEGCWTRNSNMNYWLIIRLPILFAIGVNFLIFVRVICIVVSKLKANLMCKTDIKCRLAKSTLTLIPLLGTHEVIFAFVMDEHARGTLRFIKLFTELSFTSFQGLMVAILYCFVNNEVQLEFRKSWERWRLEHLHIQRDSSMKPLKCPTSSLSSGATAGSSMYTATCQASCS

| Compound | resistance to fibrillation (thioflavin-T fluorescence, FIG. 2) ([1]; 5 mg/mL, 37° C. 48H without agitation, then 40° C. 48H with agitation) | stability / resistance to fibrillation (ThT assay, FIG. 8) ([1]; 45 hours at 37° C., pH 7.0 in phosphate buffer) | solubility (physchem; pH 7) [µg/mL] | solubility at 1 h (physchem; pH 7.4) [µg/mL] | in vitro efficacy / potency (in words) (glucagon receptor; luciferase-based glucagon assay) | EC50 (glucagon receptor; read-out: EC50 [nM] (SDV), luciferase-based glucagon assay, SDV in brackets) | % bioactivity of GCG (glucagon receptor; relative to native glucagon) [%] | reversal of insulin induced hypoglycemia (blood glucose) [2] | EC50 (hGLP-1R) [nM] |
| --- | --- | --- | --- | --- | --- | --- | --- | --- | --- |
| CSCC[C@H](NC(=O)[C@H](CC(C)C)NC(=O)[C@H](Cc1c[nH]c2ccccc12)NC(=O)[C@H](CCC(N)=O)NC(=O)[C@@H](NC(=O)[C@H](Cc1ccccc1)NC(=O)[C@H](CC(=O)O)NC(=O)[C@H](CCC(N)=O)NC(=O)[C@H](C)NC(=O)[C@H](CCCNC(=N)N)NC(=O)[C@H](CCCNC(=N)N)NC(=O)C(C)(C)NC(=O)[C@H](CC(=O)O)NC(=O)[C@H](CC(C)C)NC(=O)[C@H](Cc1cccnc1)NC(=O)[C@H](CCCCN)NC(=O)[C@H](CO)NC(=O)[C@H](Cc1cccnc1)NC(=O)[C@H](CC(=O)O)NC(=O)[C@H](CO)NC(=O)[C@@H](NC(=O)[C@H](Cc1cccnc1)NC(=O)[C@@H](NC(=O)CNC(=O)[C@H](CCC(N)=O)NC(=O)[C@H](CO)NC(=O)[C@@H](N)Cc1cnc[nH]1)[C@@H](C)O)[C@@H](C)O)C(C)C)C(=O)N[C@@H](CC(N)=O)C(=O)N[C@H](C(=O)O)[C@@H](C)O [Compound 9, HSQGTXTSDXSKXLDZRRAQDFVQWLMNT] | resistant to fibrillation | showed stability | > 10000 | > 10000 | fully potent | 0.0714 | 28 | reverse insulin induced hypoglycemia |  |
| CSCC[C@H](NC(=O)[C@H](CC(C)C)NC(=O)[C@H](Cc1c[nH]c2ccccc12)NC(=O)[C@H](CCC(N)=O)NC(=O)[C@@H](NC(=O)[C@H](Cc1ccccc1)NC(=O)[C@H](CC(=O)O)NC(=O)[C@@H](CCC(N)=O)NC(=O)[C@H](C)NC(=O)[C@H](CCCNC(=N)N)NC(=O)[C@H](CCCNC(=N)N)NC(=O)C(C)(C)NC(=O)[C@H](CC(=O)O)NC(=O)[C@H](CC(C)C)NC(=O)[C@H](Cc1ccc(O)cc1)NC(=O)[C@H](CCCCN)NC(=O)[C@H](CO)NC(=O)[C@H](Cc1ccc(O)cc1)NC(=O)[C@H](CC(=O)O)NC(=O)[C@H](CO)NC(=O)[C@@H](NC(=O)[C@H](Cc1ccccc1)NC(=O)[C@@H](NC(=O)CNC(=O)[C@H](CCC(N)=O)NC(=O)[C@H](CO)NC(=O)[C@@H](N)Cc1c[nH]cn1)[C@@H](C)O)[C@@H](C)O)C(C)C)C(=O)N[C@@H](CC(=O)O)C(=O)N[C@@H](CCC(=O)O)C(=O)O [SEQ ID NO: 981, Aib16, q20, D28, E29] (H-HSQGTFTSDYSKYLD[Aib]RRA[dQ]DFVQWLMDE-OH; N-terminus and C-terminus assumed) |  |  |  |  |  |  |  |  | > 10 |
| CSCC[C@H](NC(=O)[C@H](CC(C)C)NC(=O)[C@H](Cc1c[nH]c2ccccc12)NC(=O)[C@H](CCC(N)=O)NC(=O)[C@@H](NC(=O)[C@H](Cc1ccccc1)NC(=O)[C@H](CC(=O)O)NC(=O)[C@@H](CCC(N)=O)NC(=O)[C@H](C)NC(=O)[C@H](CCCNC(=N)N)NC(=O)[C@H](CCCNC(=N)N)NC(=O)C(C)(C)NC(=O)[C@H](CC(=O)O)NC(=O)[C@H](CC(C)C)NC(=O)[C@H](Cc1ccc(O)cc1)NC(=O)[C@H](CCCCN)NC(=O)[C@H](CO)NC(=O)[C@H](Cc1cccnc1)NC(=O)[C@H](CC(=O)O)NC(=O)[C@H](CO)NC(=O)[C@@H](NC(=O)[C@H](Cc1ccccc1)NC(=O)[C@@H](NC(=O)CNC(=O)[C@H](CCC(N)=O)NC(=O)[C@H](CO)NC(=O)[C@@H](N)Cc1c[nH]cn1)[C@@H](C)O)[C@@H](C)O)C(C)C)C(=O)N[C@@H](CC(N)=O)C(=O)N[C@H](C(=O)O)[C@@H](C)O [SEQ ID NO: 971, 3-Pal10, Aib16, q20] |  |  |  |  |  |  |  |  | > 10 |
